Where two headings read alike, the source gives them in different places.
Molecular target: SARS2 protease (Severe acute respiratory syndrome coronavirus 2, UniProt P0DTD1)
Test: SARS-CoV-2 protease inhibition assay (SARS2 FRET protease assay)
Assay type: biochemical
Procedure: Viral protease assays: The antiviral activities of inhibitors were determined by FRET (Fluorescence Resonance Energy Transfer) assay. Purified viral protease was incubated with the protease substrate peptide (Edans-DFHLQ/GP-Dabcyl) and inhibitor, and IC50 values were subsequently determined by the fluorescence signals.
The SARS2 FRET protease assay was performed in 20 mM HEPES-Na pH 7, 120 mM NaCl, 0.4 mM EDTA, 0.01% Triton, 5% glycerol, and 4 mM DTT. A self-quenching peptide substrate 5-FAM-TSA VLQ SGF RKK (5TAMRA)-NH2 was custom synthesized by Anaspec. Compounds were diluted in 3-fold serial dilutions to final concentrations of 20 μM to 1.0 nM. SARS2 protease was added to a final concentration of 25 nM, depending on the enzyme activity level, and the peptide substrate was added to a final concentration of 1.3 μM. The assay was incubated 30 minutes at 30° C. and read in a Perkin Elmer Envision with excitation at 473 nm and emission measurement at 519 nm.

[1] = Table E, SARS-CoV-2 protease inhibition, read-out: IC50

Compound | IC50 [1] [µM] | IC50 [µM]
CCCCCCCC1CC/C=C/CC(C(=O)NC)C[C@@H](C(=O)N(C)OC)NC(=O)[C@H](CC(C)C)NC(=O)O1 (stereo partly drawn) [Compound B64, (4S,7S,E)-15-heptyl-4-isobutyl-N^7-methoxy-N^7,N^9-dimethyl-2,5-dioxo-1-oxa-3,6-diazacyclopentadec-11-ene-7,9-dicarboxamide] | > 200 | 
CON(C)C(=O)[C@H](CCC(=O)N(C)CCc1ccccc1)NC(=O)[C@H](CC1CCCCC1)NC(=O)OCc1cccc(Cl)c1 (stereo in doubt) [Compound A30, 3-chlorobenzyl ((S)-3-cyclohexyl-1-(((S)-1-(methoxy(methyl)amino)-5-(methyl(phenethyl)amino)-1,5-dioxopentan-2-yl)amino)-1-oxopropan-2-yl)carbamate] | > 200 | 
CCCCCCCC1CCCCCC(C(=O)N(C)C)CC(C(=O)N(C)OC)NC(=O)[C@H](CC(C)C)NC1=O (stereo in doubt) [Compound B19, (2S,5S)-13-heptyl-2-isobutyl-N^5-methoxy-N^5,N^7,N^7-trimethyl-3,14-dioxo-1,4-diazacyclotetradecane-5,7-dicarboxamide] | > 200 | 
CON(C)C(=O)[C@@H]1CC(C(=O)N(C)C)C/C=C/CCC(Cc2ccccc2)OC(=O)NC(CC(C)C)C(=O)N1 (stereo in doubt) [Compound B31, (4S,7S)-15-Benzyl-4-isobutyl-N7-methoxy-N7,N9,N9-trimethyl-2,5-dioxo-1-oxa-3,6-diazacyclopentadec-11-ene-7,9-dicarboxamide] | > 200 | 
CCCCCCCC1CC/C=C/CC(C(=O)NC)C[C@@H](CO)NC(=O)[C@H](CC(C)C)NC(=O)O1 (stereo partly drawn) [Compound B63, (4S,7S,E)-15-heptyl-7-(hydroxymethyl)-4-isobutyl-N-methyl-2,5-dioxo-1-oxa-3,6-diazacyclopentadec-11-ene-9-carboxamide] | 30 | 
CCCCCCCC1CC/C=C/CC(C(=O)NC)C[C@@H](C(=O)N(C)OC)NC(=O)C(CC(C)C)NC(=O)O1 (single isomer, unassigned) [Compound B33] | > 200 | 
CCCCCCCC1CC/C=C/CC(C(=O)NC)C[C@@H](C(=O)N(C)OC)NC(=O)C(CC(C)C)NC(=O)O1 (single isomer, unassigned) [Compound B32] | > 200 | 
CCCCCCCCC(=O)N[C@@H](CC(C)C)C1=NC(CCC(=O)NC)CO1 (stereo partly drawn) [Compound A112, N-((1 S)-3-methyl-1-(4-(3-(methylamino)-3-oxopropyl)-4,5-dihydrooxazol-2-yl)butyl)nonanamide] | > 200 | 
CCCCCCC1CCC/C=C\CC(C(=O)N(C)C)CC(C(=O)N(C)OC)NC(=O)C(CC(C)C)NC(=O)C1 (stereo in doubt) [Compound B14, (2S,5S,Z)-14-hexyl-2-isobutyl-N5-methoxy-N^5,N^7,N^7-trimethyl-3,16-dioxo-1,4-diazacyclohexadec-9-ene-5,7-dicarboxamide] | > 200 | 
CCCCCCCC1CCCCCCCC(C(=O)N(C)C)CC(C(=O)N(C)OC)NC(=O)[C@H](CC(C)C)NC1=O (stereo in doubt) [Compound B9, (2S,5S)-15-heptyl-2-isobutyl-N^5-methoxy-N^5,N^7,N^7-trimethyl-3,16-dioxo-1,4-diazacyclohexadecane-5,7-dicarboxamide] | > 200 | 
CON(C)C(=O)[C@H](CCC(=O)N(C)CCc1ccc(Cl)cc1)NC(=O)[C@H](CC1CCCCC1)NC(=O)OCc1cccc(Cl)c1 (stereo in doubt) [Compound A41, 3-Chlorobenzyl ((S)-1-(((S)-5-((4-chlorophenethyl)(methyl)amino)-1-(methoxy(methyl)amino)-1,5-dioxopentan-2-yl)amino)-3-cyclohexyl-1-oxopropan-2-yl)carbamate] | 30 | 
CON(C)C(=O)[C@H](CCC(=O)N(C)CCc1cccc(Cl)c1)NC(=O)[C@H](CC1CCCCC1)NC(=O)OCc1cccc(Cl)c1 [Compound A23] | > 200 | 
CC(C)C[C@@H]1NC(=O)OC(Cc2ccccc2)CCC=CCC(C(=O)N(C)C)C[C@@H](C(=O)C(=O)NC(C)C)NC1=O (stereo partly drawn) [Compound B42, (4S,7S)-15-benzyl-4-isobutyl-7-(2-(isopropylamino)-2-oxoacetyl)-N,N-dimethyl-2,5-dioxo-1-oxa-3,6-diazacyclopentadec-11-ene-9-carboxamide] |  | > 200
CCCCCCCC1CC/C=C/CC(C(=O)NC)C[C@@H](C(=O)N(C)OC)NC(=O)C(CC(C)C)NC(=O)O1 (single isomer, unassigned) [Compound B35] | > 200 | 
CC(C)C[C@@H]1NC(=O)C(Cc2ccccc2)CCCC/C=C/CC2CC(NC1=O)C(O)N(C)C2=O (stereo partly drawn) [Compound B21, (4S,E)-7-benzyl-18-hydroxy-4-isobutyl-17-methyl-2,5,17-triazabicyclo[13.3.1]nonadec-12-ene-3,6,16-trione] | 89.8 | 
CCNC(=O)CN(C)C(=O)CC[C@H](NC(=O)[C@H](CC1CCCCC1)NC(=O)OCc1cccc(Cl)c1)C(O)P(=O)(OCC)OCC (stereo partly drawn) [Compound A17, 3-Chlorobenzyl ((2S)-3-cyclohexyl-1-(((2S)-1-(diethoxyphosphoryl)-5-((2-(ethylamino)-2-oxoethyl) (methyl)amino)-1-hydroxy-5-oxopentan-2-yl)amino)-1-oxopropan-2-yl) carbamate] | 169 | 
CCCCCCCC1CCC/C=C/CC(C(=O)N(C)C)CC(C(=O)N(C)OC)NC(=O)[C@H](CC(C)C)NC(=O)O1 (stereo in doubt) [Compound B13, (4S,7S,E)-16-Heptyl-4-isobutyl-N^7-methoxy-N^7,N^9,N^9-trimethyl-2,5-dioxo-1-oxa-3,6-diazacyclohexadec-11-ene-7,9-dicarboxamide] | > 200 | 
CCCCCCCC1CCCC/C=C/CC(C(=O)N(C)C)CC(C=O)NC(=O)[C@H](CC(C)C)NC1=O (stereo in doubt) [Compound B7, (2S,5S,E)-5-formyl-15-heptyl-2-isobutyl-N,N-dimethyl-3,16-dioxo-1,4-diazacyclohexadec-9-ene-7-carboxamide] | > 200 | 
CCOP(=O)(OCC)C(O)[C@H](CCC(=O)N(C)CC(C)c1ccccc1)NC(=O)[C@H](CC1CCCCC1)NC(=O)OCc1cccc(Cl)c1 (stereo partly drawn) [Compound A102, 3-Chlorobenzyl ((2S)-3-cyclohexyl-1-(((2S)-1-(diethoxyphosphoryl)-1-hydroxy-5-(methyl(2-phenylpropyl)amino)-5-oxopentan-2-yl)amino)-1-oxopropan-2-yl)carbamate] | > 200 | 
CCCCCCCCC(=O)N[C@@H](CC(C)C)C(=O)NC1CCC(=O)N(C)C1(O)C(=O)NC(C)C (stereo in doubt) [Compound A4, (3S)-2-hydroxy-N-isopropyl-1-methyl-3-((S)-4-methyl-2-nonanamidopentanamido)-6-oxopiperidine-2-carboxamide] | > 200 | 
CCCCCCCC1CC/C=C\CC(C(=O)N(C)C)CC(C=O)NC(=O)[C@H](CC(C)C)NC1=O (stereo in doubt) [Compound B10, (2S,5S,Z)-5-formyl-13-heptyl-2-isobutyl-N,N-dimethyl-3,14-dioxo-1,4-diazacyclotetradec-9-ene-7-carboxamide] | 105 | 
CCCCCCCC1CCC/C=C/CC2(CCNC2=O)C[C@@H]([C@H](O)P(=O)(OCC)OCC)NC(=O)[C@H](CC(C)C)NC1=O (stereo partly drawn) [Compound B22, Diethyl ((1R)-((7S,10S,E)-13-heptyl-10-isobutyl-1,9,12-trioxo-2,8,11-triazaspiro[4.14]nonadec-17-en-7-yl)(hydroxy)methyl)phosphonate] |  | > 200
CCOP(=O)(OCC)C(O)[C@H](CCC(=O)N(C)CCc1ccncc1)NC(=O)[C@H](CC1CCCCC1)NC(=O)OCc1cccc(Cl)c1 (stereo partly drawn) [Compound A51, 3-Chlorobenzyl ((2S)-3-cyclohexyl-1-(((2S)-1-(diethoxyphosphoryl)-1-hydroxy-5-(methyl (2-(pyridin-4-yl)ethyl)amino)-5-oxopentan-2-yl)amino)-1-oxopropan-2-yl) carbamate] | > 200 | 
CON(C)C(=O)[C@H](CC(C)C(=O)N(C)CCc1ccccc1)NC(=O)[C@H](CC1CCCCC1)NC(=O)OCc1cccc(Cl)c1 (stereo in doubt) [Compound A37, 3-Chlorobenzyl ((2S)-3-cyclohexyl-1-(((2S)-1-(methoxy (methyl)amino)-4-methyl-5-(methyl (phenethyl)amino)-1,5-dioxopentan-2-yl)amino)-1-oxopropan-2-yl) carbamate] | > 200 | 
CCCCCCCC1CC/C=C\CC(C(=O)N(C)C)CC(C(=O)N(C)OC)NC(=O)[C@H](CC(C)C)NC1=O (stereo in doubt) [Compound B11, (2S,5S,Z)-13-heptyl-2-isobutyl-N^5-methoxy-N^5,N^7,N^7-trimethyl-3,14-dioxo-1,4-diazacyclotetradec-9-ene-5,7-dicarboxamide] | > 200 | 
CCOP(=O)(OCC)C(O)[C@H](CCC(=O)N1CCCCc2ccccc21)NC(=O)[C@H](CC1CCCCC1)NC(=O)OCc1cccc(Cl)c1 (stereo partly drawn) [Compound A55, 3-Chlorobenzyl ((2S)-3-cyclohexyl-1-(((2S)-1-(diethoxyphosphoryl)-1-hydroxy-5-oxo-5-(2,3,4,5-tetrahydro-1H-benzo[b]azepin-1-yl)pentan-2-yl)amino)-1-oxopropan-2-yl)carbamate] | > 200 | 
CCNC(=O)NCCN(C)C(=O)CC[C@@H](CO)NC(=O)[C@H](CC1CCCCC1)NC(=O)OCc1cccc(Cl)c1 [Compound A100, 3-Chlorobenzyl ((12S,15S)-16-cyclohexyl-12-(hydroxymethyl)-8-methyl-4,9,14-trioxo-3,5,8,13-tetraazahexadecan-15-yl)carbamate] | > 200 | 

Reference: patent US20230151034A1 (COCRYSTAL PHARMA, INC., priority 2020, published 2023)
